In article PMC10826971, “Evaluating protein cross-linking as a therapeutic strategy to stabilize SOD1 variants in a mouse model of familial ALS” (PLOS Biology, 2024):

Assays:
SOD1^H46R = target: T1, SOD1^H46R (Homo sapiens, UniProt P00441, H47R); experiment: Differential scanning fluorimetry (DSF), thermal stability; assay type: binding
T1 construct: made in house; host or cells: EGy118ΔSOD1 yeast, YEp351 expression vector
Description: (§1) To understand how cross-linking effects SOD1 stability, we quantified changes in unfolding temperature (ΔTu, hereafter thermal stability).
(§2) The effect of cross-link formation on the thermal stability of SOD1 was determined by differential scanning fluorimetry as previously described. […] After incubation, SYPRO Orange (Invitrogen Corporation, Carlsbad, California, USA), an environmentally sensitive fluorescent dye which is quenched in an aqueous environment but becomes unquenched once it binds hydrophobic residues, was added to the reaction mixture to a final concentration of 200×. The samples were then transferred to a fast optical 96-well reaction plate (Applied Biosystem, Life Technologies Corporation, Carlsbad, California, USA) and loaded on to the real-time PCR machine (Applied Biosystem, Life Technologies Corporation, Carlsbad, California, USA) after plate was spun down to eliminate bubbles. The Melt curve template in StepOne Plus software was used to set up a method. […] The final concentration of DMSO in the reaction mixture was checked as it contributes to the denaturation of proteins. Dilutions were performed accordingly to maintain the final concentration of DMSO less than 1% (vol/vol). All samples were run in technical triplicates. The background data was subtracted from the average relative fluorescence and average derivate for each temperature point, and the data were normalized before Tus were quantified by averaging the negative first derivative of relative fluorescence of all 3 runs and identifying the local minima.

SOD1^G85R = target: T2, SOD1^G85R (Homo sapiens, UniProt P00441, G86R); experiment: as above; assay type: binding
T2 construct: made in house; host or cells: EGy118ΔSOD1 yeast, YEp351 expression vector
T2 sequence (P00441 2-154 G86R limits assumed): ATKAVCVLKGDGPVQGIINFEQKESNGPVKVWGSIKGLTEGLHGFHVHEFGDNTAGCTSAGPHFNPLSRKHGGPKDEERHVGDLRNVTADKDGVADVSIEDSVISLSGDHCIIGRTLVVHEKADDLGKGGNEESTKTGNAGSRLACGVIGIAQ
Description: as §1, §2

T1 sequence (P00441 2-154 H47R limits assumed): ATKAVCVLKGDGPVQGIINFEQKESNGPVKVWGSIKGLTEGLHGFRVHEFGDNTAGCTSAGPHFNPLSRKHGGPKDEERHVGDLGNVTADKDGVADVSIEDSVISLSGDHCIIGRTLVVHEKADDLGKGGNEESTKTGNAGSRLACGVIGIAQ

[O-][S+]1CCCCS1 (stereo not drawn) [S-XL6, 1,2-dithiane-1-oxide]
unfolding temperature (Tu) of S-XL6 cross-linked protein (SOD1^H46R; 10-fold molar excess S-XL6, 4 h 37°C, untreated 46.3°C): 69.3 °C | Normalized ROX (SOD1^H46R; SOD1 H46R Protein+S-XL6, Avg. Temp 88.537): 0.19 | Normalized ROX (SOD1^H46R; SOD1 H46R Protein+S-XL6, Avg. Temp 88.845): 0.18 | Normalized ROX (SOD1^H46R; SOD1 H46R Protein+S-XL6, Avg. Temp 89.124): 0.17 | Normalized ROX (SOD1^H46R; SOD1 H46R Protein+S-XL6, Avg. Temp 89.441): 0.16 | Normalized ROX (SOD1^H46R; SOD1 H46R Protein+S-XL6, Avg. Temp 89.738): 0.15 | Normalized ROX (SOD1^H46R; SOD1 H46R Protein+S-XL6, Avg. Temp 90.026): 0.15 | Normalized ROX (SOD1^H46R; SOD1 H46R Protein+S-XL6, Avg. Temp 90.347): 0.14 | Normalized ROX (SOD1^H46R; SOD1 H46R Protein+S-XL6, Avg. Temp 90.631): 0.13 | Normalized ROX (SOD1^H46R; SOD1 H46R Protein+S-XL6, Avg. Temp 90.929): 0.12 | Normalized ROX (SOD1^H46R; SOD1 H46R Protein+S-XL6, Avg. Temp 91.236): 0.12 | Normalized ROX (SOD1^H46R; SOD1 H46R Protein+S-XL6, Avg. Temp 91.540): 0.11 | Normalized ROX (SOD1^H46R; SOD1 H46R Protein+S-XL6, Avg. Temp 91.847): 0.10 | Normalized ROX (SOD1^H46R; SOD1 H46R Protein+S-XL6, Avg. Temp 92.140): 0.10 | Normalized ROX (SOD1^H46R; SOD1 H46R Protein+S-XL6, Avg. Temp 92.454): 0.09 | Normalized ROX (SOD1^H46R; SOD1 H46R Protein+S-XL6, Avg. Temp 92.741): 0.08 | Normalized ROX (SOD1^H46R; SOD1 H46R Protein+S-XL6, Avg. Temp 93.029): 0.08 | Normalized ROX (SOD1^H46R; SOD1 H46R Protein+S-XL6, Avg. Temp 93.345): 0.07 | Normalized ROX (SOD1^H46R; SOD1 H46R Protein+S-XL6, Avg. Temp 93.646): 0.07 | Normalized ROX (SOD1^H46R; SOD1 H46R Protein+S-XL6, Avg. Temp 93.947): 0.06 | Normalized ROX (SOD1^H46R; SOD1 H46R Protein+S-XL6, Avg. Temp 94.241): 0.06 | Normalized ROX (SOD1^H46R; SOD1 H46R Protein+S-XL6, Avg. Temp 94.530): 0.0527 | Normalized ROX (SOD1^H46R; SOD1 H46R Protein+S-XL6, Avg. Temp 94.809): 0.05 | Normalized ROX (SOD1^H46R; SOD1 H46R Protein+S-XL6, Avg. Temp 95.129): 0.0441 | Normalized ROX (SOD1^H46R; SOD1 H46R Protein+S-XL6, Avg. Temp 95.418): 0.04 | Normalized ROX (SOD1^H46R; SOD1 H46R Protein+S-XL6, Avg. Temp 95.750): 0.0365 | Normalized ROX (SOD1^H46R; SOD1 H46R Protein+S-XL6, Avg. Temp 96.054): 0.032 | Normalized ROX (SOD1^H46R; SOD1 H46R Protein+S-XL6, Avg. Temp 96.342): 0.03 | Normalized ROX (SOD1^H46R; SOD1 H46R Protein+S-XL6, Avg. Temp 96.634): 0.0257 | Normalized ROX (SOD1^H46R; SOD1 H46R Protein+S-XL6, Avg. Temp 96.939): 0.0228 | Normalized ROX (SOD1^H46R; SOD1 H46R Protein+S-XL6, Avg. Temp 97.230): 0.02 | Normalized ROX (SOD1^H46R; SOD1 H46R Protein+S-XL6, Avg. Temp 97.449): 0.017 | Normalized ROX (SOD1^H46R; SOD1 H46R Protein+S-XL6, Avg. Temp 97.842): 0.0143 | Normalized ROX (SOD1^H46R; SOD1 H46R Protein+S-XL6, Avg. Temp 98.133): 0.0127 | Normalized ROX (SOD1^H46R; SOD1 H46R Protein+S-XL6, Avg. Temp 98.436): 0.01 | Normalized ROX (SOD1^H46R; SOD1 H46R Protein+S-XL6, Avg. Temp 98.745): 0.00697 | Normalized ROX (SOD1^H46R; SOD1 H46R Protein+S-XL6, Avg. Temp 99.031): 0.00571 | Normalized ROX (SOD1^H46R; SOD1 H46R Protein+S-XL6, Avg. Temp 99.342): 0.0034 | Normalized ROX (SOD1^H46R; SOD1 H46R Protein+S-XL6, Avg. Temp 99.632): 0.00127 | Normalized ROX (SOD1^H46R; SOD1 H46R Protein+S-XL6, Avg. Temp 99.860): 0.00 | unfolding temperature (Tu) of S-XL6 cross-linked protein (SOD1^G85R; 10-fold molar excess S-XL6, 4 h 37°C, untreated 40.8°C): 65.1 °C | Normalized ROX (SOD1^G85R; SOD1 G85R Protein+S-XL6, Avg. Temp 88.557): 0.19 | Normalized ROX (SOD1^G85R; SOD1 G85R Protein+S-XL6, Avg. Temp 88.853): 0.18 | Normalized ROX (SOD1^G85R; SOD1 G85R Protein+S-XL6, Avg. Temp 89.160): 0.17 | Normalized ROX (SOD1^G85R; SOD1 G85R Protein+S-XL6, Avg. Temp 89.454): 0.17 | Normalized ROX (SOD1^G85R; SOD1 G85R Protein+S-XL6, Avg. Temp 89.762): 0.16 | Normalized ROX (SOD1^G85R; SOD1 G85R Protein+S-XL6, Avg. Temp 90.051): 0.15 | Normalized ROX (SOD1^G85R; SOD1 G85R Protein+S-XL6, Avg. Temp 90.354): 0.15 | Normalized ROX (SOD1^G85R; SOD1 G85R Protein+S-XL6, Avg. Temp 90.655): 0.14 | Normalized ROX (SOD1^G85R; SOD1 G85R Protein+S-XL6, Avg. Temp 90.952): 0.13 | Normalized ROX (SOD1^G85R; SOD1 G85R Protein+S-XL6, Avg. Temp 91.251): 0.13
